From US20170112784A1, “Method and Medicament for Pain Management” (priority 2007, published 2017)

How the values were obtained:
horses [1] = assay: Trial of methoxyflurane administered to horses at the end of anaesthesia to modify recovery; format: in vivo, horse; set-up: 1st Movt / Stern. / Stnd / Atax / Walk out: unit not given here
Protocol: Trial of methoxyflurane administered to horses at the end of anaesthesia, attempting to modify recovery:
[…] Horses recovering from isoflurane typically attempt to stand in 10 to 15 minutes, usually fall down and try to get back up 2 or 3 times (sometimes violent, resulting in injuries from skin abrasions to fractured limbs) and are then standing 15 to 20 minutes after anaesthetic administration ceased. […] Halothane recoveries are less violent and result in less likelihood of injury.
Initially trials were also performed in anattempt to determine the dose and duration of MOF administration that would result in improved quality of recovery.
The last 8 horses were administered with ever lower doses of MOF for less time with better results (see table below). […] The lowest dose produced a good result.

horses [2] = conditions: typical; cited from earlier work
[3] = horse 338 kgs, 30 Mins. HAL anaesthesia, Methoxy volume not given
[4] = horse 492 kgs, 90 Mins. HAL anaesthesia, Methoxy volume not given
[5] = horse 472 kgs, 130 Mins. ISO anaesthesia, Methoxy volume not given
[6] = horse 332 kgs, 135 Mins. ISO anaesthesia, Methoxy total 200 ml
[7] = horse 462 kgs, 135 Mins. ISO anaesthesia, Methoxy total 350 ml
[8] = horse 470 kgs, 85 Mins. ISO anaesthesia, Methoxy total 210 ml
[9] = horse 492 kgs, 75 Mins. ISO anaesthesia, Methoxy total 540 ml
[10] = horse 580 kgs, 16O Mins. ISO anaesthesia, Methoxy total 300 ml

FC(F)(F)C(Cl)Br (centres unmarked) [HAL, halothane]
1st Movt (horses [1]; [3]): 27 | Atax (horses [1]; [3]): Fell | Comments (horses [1]; [3]): Stood/fell x 3 | Stern. (horses [1]; [3]): 30 | Stnd (horses [1]; [3]): 31 | Walk out (horses [1]; [3]): 55 | 1st Movt (horses [1]; [4]): 30 | Atax (horses [1]; [4]): 75 | Comments (horses [1]; [4]): Poor - flip over | Stern. (horses [1]; [4]): 50(2) | Stnd (horses [1]; [4]): 65 | Walk out (horses [1]; [4]): 85 | recovery duration in comparison with isoflurane (horses [2]): twice as long as isoflurane

FC(F)OC(Cl)C(F)(F)F (centres unmarked) [ISO, isoflurane]
1st Movt (horses [1]; [5]): 23 | Atax (horses [1]; [5]): 78 | Comments (horses [1]; [5]): Try stand at 23 | Stern. (horses [1]; [5]): 32 | Stnd (horses [1]; [5]): 63 | Walk out (horses [1]; [5]): 100

COC(F)(F)C(Cl)Cl [Methoxy, methoxyflurane]
1st Movt (horses [1]; [6]): 17 | Atax (horses [1]; [6]): 30 | Comments (horses [1]; [6]): Good | Stern. (horses [1]; [6]): 25 | Stnd (horses [1]; [6]): 26 | Walk out (horses [1]; [6]): 41 | 1st Movt (horses [1]; [7]): 48 | Atax (horses [1]; [7]): 59 | Comments (horses [1]; [7]): Still 45 mm then | Stnd (horses [1]; [7]): 49 | Walk out (horses [1]; [7]): 75 | 1st Movt (horses [1]; [8]): 5 | Atax (horses [1]; [8]): 35 | Comments (horses [1]; [8]): 10x wobble then | Stern. (horses [1]; [8]): 14 | Stnd (horses [1]; [8]): 29 | Walk out (horses [1]; [8]): 55 | 1st Movt (horses [1]; [9]): 50 | Atax (horses [1]; [9]): 85 | Comments (horses [1]; [9]): Stood 69- fell | Stern. (horses [1]; [9]): 60 | Stnd (horses [1]; [9]): 75 | Walk out (horses [1]; [9]): 100 | 1st Movt (horses [1]; [10]): 37 | Atax (horses [1]; [10]): 85 | Stern. (horses [1]; [10]): 60 | Stnd (horses [1]; [10]): 61 | Walk out (horses [1]; [10]): 90 | quality of recovery (horses [1]; initial trials (higher dose, longer administration), horses after isoflurane anaesthesia): long recoveries with marked ataxia | quality of recovery (horses [1]; last 8 horses, ever lower doses for less time): less ataxia and a better quality recovery | quality of recovery (horses [1]; lowest dose, last horse): good result
